# Reference: patent EP0364941A1, “Branched-chain alkyl esters of 2-(4-(2-piperidino ethoxy)benzoyl)benzoic acid, processes for their preparation and their use as spasmolytic agents” (HOECHST AKTIENGESELLSCHAFT, priority 1988, dated 1990)
# Experiments:
# [1] = system: isolated guinea pig ileum; assay: Antispasmodic activity in isolated guinea pig ileum (acetylcholine-induced contraction); type: cell-based
# Experimental: Small intestines obtained from freshly sacrificed guinea pigs (weight range, 200 - 400 g) of either sex were cleaned and stored in tyrode solution. A piece of ileum was mounted in an organ bath containing tyrode solution at 37°C and maintained at a tension of 0.5 to 1.0 g. The solution was continuously aerated with compressed air. After an initial equilibration period, a sub-maximal dose of acetylcholine required for measurable contraction was standardised. Tension changes were monitored using an isotonic strain gauge attached to the tissue and the responses were recorded on a strip chart recorder. Antispasmodic activity of test compounds at different concentrations was followed and the IC₅₀ values were calculated from dose response curves.
# [2] = system: small intestine; assay: Gastrointestinal propulsion (charcoal transport) in mice; type: in vivo
# Experimental: Ref.: J.M.A. Zwagemakers and V. Claassen, Arzneim-Forsch/-Drug Res. 30 (II) Nr.9, p.1517 (1980).
# The test compounds I and II were given orally by gavage in a range of 10 to 100 mg/kg doses 30 min before charcoal suspension (0.2 ml/animal, 10% charcoal in 5% gum acacia) in 18 hrs fasted mice (male or female, weight range 18 to 25 g). 30 min after administration of charcoal animals were killed and the extent of charcoal propulsion in the small intestine was measured. The inhibitory activity of test compound on charcoal transport was assessed as percent inhibition compared to length of intestine. For control group 10 ml/kg of saline was given.
smiles,measurement,setting,value
"CC(C)OC(=O)c1ccccc1C(=O)c1ccc(OCCN2CCCCC2)cc1.Cl [Test Compound II, Isopropyl-2-[4-(2-piperidino-ethoxy)-benzoyl]-benzoate hydrochloride]",Guinea pig ileum Duration of action,[1],> 7.0 min
same,IC50,"[1]; Cavia porcellus, read-out: Guinea pig ileum IC₅₀",0.01 µg/mL
same,Percent Inhibition,[2]; 10 mg/kg p.o.,38.0 ± 4.0%
same,Percent Inhibition,[2]; 30 mg/kg p.o.,41.0 ± 3.0%
same,Percent Inhibition,[2]; 60 mg/kg p.o.,46.0 ± 5.0%
